Substitutions are numbered along the chain they refer to.
Legend:
Format in all cases: cell-based
[1] = molecular target: T1, T877A AR (Homo sapiens, UniProt P10275, T878A); test: Agonism in T877A mutant AR, AR transactivation assay in COS-1 cells, test compounds alone; conditions: 10 microM; compound alone
T1 construct: expressed in transfected cells; host or cells: COS-1 cells
T1 sequence (P10275 1-920 T878A): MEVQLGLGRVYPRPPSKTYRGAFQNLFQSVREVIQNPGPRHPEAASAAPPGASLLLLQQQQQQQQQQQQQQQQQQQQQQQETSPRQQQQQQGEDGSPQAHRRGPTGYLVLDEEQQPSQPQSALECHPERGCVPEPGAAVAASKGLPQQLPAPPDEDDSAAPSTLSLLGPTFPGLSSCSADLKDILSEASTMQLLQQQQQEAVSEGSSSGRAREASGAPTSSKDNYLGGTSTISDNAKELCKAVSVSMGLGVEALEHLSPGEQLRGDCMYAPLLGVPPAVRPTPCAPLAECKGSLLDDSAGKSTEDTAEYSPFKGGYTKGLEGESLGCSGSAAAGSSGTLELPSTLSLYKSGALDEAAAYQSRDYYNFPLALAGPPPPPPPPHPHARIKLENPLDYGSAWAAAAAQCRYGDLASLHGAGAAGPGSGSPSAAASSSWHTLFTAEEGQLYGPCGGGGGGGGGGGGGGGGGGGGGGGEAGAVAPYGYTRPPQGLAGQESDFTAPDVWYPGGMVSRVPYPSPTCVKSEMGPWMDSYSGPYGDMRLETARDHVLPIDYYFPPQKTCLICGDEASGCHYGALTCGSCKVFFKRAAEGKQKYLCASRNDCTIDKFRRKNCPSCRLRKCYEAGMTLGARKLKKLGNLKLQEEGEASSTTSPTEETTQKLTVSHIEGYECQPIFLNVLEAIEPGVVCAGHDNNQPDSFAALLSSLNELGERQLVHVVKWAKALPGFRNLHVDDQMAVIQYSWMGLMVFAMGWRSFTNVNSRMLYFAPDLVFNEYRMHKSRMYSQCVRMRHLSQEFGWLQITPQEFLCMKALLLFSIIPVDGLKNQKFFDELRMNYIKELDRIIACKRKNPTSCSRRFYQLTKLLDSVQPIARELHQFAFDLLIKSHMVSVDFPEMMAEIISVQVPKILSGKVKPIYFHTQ
Experimental: (§1) COS-1 cells (American Type Culture Collection, ATCC) were cultured in Dulbecco's Modified Eagle Medium (DMEM) supplemented with 10% fetal bovine serum (FBS), penicillin (6.25 U/ml) and streptomycin (6.25 μg/ml) and seeded onto 48-well plates (50 000 cells/well) one day before transfection. Transfection media containing 2.5% charcoal-stripped FBS in DMEM was changed on cells 4 h prior to transfection. Cells were transfected with 50 ng of luciferase (LUC) reporter gene plasmid (pPB-286/+32-LUC; PB, probasin promoter), 5 ng of AR expression plasmid (pSG5-hAR), and 5 ng of pCMVβ (an internal, beta-galactosidase control for transfection efficiency and cell growth) using TransIT-LT1 reagent (Mirus Bio Corporation) according to the manufacturer's instructions. […] After 18 h, reporter gene activities (LUC and beta-galactosidase) were determined according to standard methods. The data are expressed as relative LUC activity (luciferase light units divided by beta-galactosidase A420nm to control for transfection efficiency) of a given compound in relation to the activity of a reference test item (=100%).
Agonism in T877A AR of compounds of the present invention was measured in AR transactivation assay in COS-1 cells as described above except that AR expression vector harboring the T877A mutation was used. The transfected cells were exposed to test compounds alone. Testosterone was used as reference agonist, and its' relative LUC activity representing AR-dependent transcription was set to 100%.

[2] = molecular target: T2, W741L AR (Homo sapiens, UniProt P10275, W742L); test: Agonism in W741L mutant AR, AR transactivation assay in COS-1 cells, test compounds alone; conditions: 10 microM; compound alone
T2 construct: expressed in transfected cells; host or cells: COS-1 cells
T2 sequence (P10275 1-920 W742L): T1 sequence (P10275 1-920 T878A) with W742L, A878T
Experimental: as §1
Agonism in W741L AR of compounds of the present invention was measured in AR transactivation assay in COS-1 cells as described above except that AR expression vector harboring the W741L mutation was used instead of the WT AR. The transfected cells were exposed to test compounds alone.

[3] = molecular target: T3, WT AR (Homo sapiens, UniProt P10275); test: Antagonism in WT AR, AR transactivation reporter gene assay (COS-1 cells, or INDIGO Human AR Reporter Assay System), competitive setting with reference agonist; conditions: for activity at 1 µM / activity at 10 µM: COS-1, read-out: Relative LUC activity (%) indicating residual androgen activity in relation to reference agonist (100%); for Relative LUC activity (%) indicating residual androgen activity in relation to reference agonist (100%): competitive setting with reference agonist (50 nM testosterone or 400 pM FIT)
T3 construct: expressed in transfected cells; host or cells: COS-1 cells (transient transfection); alternatively non-human mammalian cells of the INDIGO Biosciences Human AR Reporter Assay System
T3 sequence (P10275 1-920): T1 sequence (P10275 1-920 T878A) with A878T
Experimental: After 18 h, reporter gene activities (LUC and beta-galactosidase) were determined according to standard methods. The data are expressed as relative LUC activity (luciferase light units divided by beta-galactosidase A420nm to control for transfection efficiency) of a given compound in relation to the activity of a reference test item (=100%).
Alternatively, commercial Human AR Reporter Assay System (INDIGO Biosciences) was used. In this assay, non-human mammalian cells are engineered to express human WT AR together with LUC reporter gene linked to AR-responsive promoter. 400 pM 6-alpha-FI testosterone, FIT, was used as a reference agonist in a competitive setting.
Antagonism in WT AR of compounds of the present invention was measured in AR transactivation assay in COS-1 cells in competitive setting using testosterone as a reference agonist as described above. Alternatively INDIGO Bioscience's Human AR Reporter Assay System was utilized. […] Relative LUC activity representing AR-dependent transcription obtained by exposure to reference agonist alone was set to 100%.

With `CCS(=O)(=O)CC(O)(C(=O)Nc1ccc(C#N)c(C(F)(F)F)c1)c1ccc(Cl)nc1` (stereo not shown) [Example 1, 2-(6-chloropyridin-3-yl)-N-[4-cyano-3-(trifluoromethyl)phenyl]-3-(ethanesulfonyl)-2-hydroxypropanamide] the “Relative LUC activity (%) in T877A AR in relation to testosterone (100%)” value (from here on “Relative LUC activity (%) in T877A AR”) [1] was 13%, the “Relative LUC activity (%) in W741L AR in relation to BIC (100%)” value (“Relative LUC activity (%) in W741L AR” below) [2] was 6% and the activity at 1 µM [3] was 37%. The activity at 10 µM [3] was 8%.
In the case of `CC(C)CCS(=O)(=O)CC(O)(C(=O)Nc1ccc(C#N)c(C(F)(F)F)c1)c1ccc(Cl)nc1` (stereo not shown) [Example 6, 2-(6-chloropyridin-3-yl)-N-[4-cyano-3-(trifluoromethyl)phenyl]-2-hydroxy-3-[(3-methylbutane)sulfonyl]propanamide], the “Relative LUC activity (%) in T877A AR” value [1] is reported as 4%, the “Relative LUC activity (%) in W741L AR” value [2] is reported as 31% and the “Relative LUC activity (%) indicating residual androgen activity in relation to reference agonist (100%)” value ([3]; 1 microM compound) is reported as 28%. For the same compound, the “Relative LUC activity (%) indicating residual androgen activity in relation to reference agonist (100%)” value ([3]; 10 microM compound) was 7%.
With `N#Cc1ccc(NC(=O)C(O)(CS(=O)(=O)Cc2ccc(Cl)cc2)c2ccc(Cl)nc2)cc1Cl` (stereo not shown) [Example 8, N-(3-chloro-4-cyanophenyl)-3-{[(4-chlorophenyl)methane]sulfonyl}-2-(6-chloropyridin-3-yl)-2-hydroxypropanamide] the “Relative LUC activity (%) in T877A AR” value [1] was 2%, the “Relative LUC activity (%) in W741L AR” value [2] was 4% and the “Relative LUC activity (%) indicating residual androgen activity in relation to reference agonist (100%)” value ([3]; 1 microM compound) was 32%. For the same compound, the “Relative LUC activity (%) indicating residual androgen activity in relation to reference agonist (100%)” value ([3]; 10 microM compound) was 4%.
For `N#Cc1ccc(NC(=O)C(O)(CS(=O)(=O)c2ccc(Cl)cc2)c2ccc(Cl)nc2)cc1Cl` (stereo not shown) [Example 9, N-(3-chloro-4-cyanophenyl)-3-[(4-chlorobenzene)sulfonyl]-2-(6-chloropyridin-3-yl)-2-hydroxypropanamide], the “Relative LUC activity (%) in T877A AR” value [1] was 3%, the “Relative LUC activity (%) in W741L AR” value [2] was 23% and the “Relative LUC activity (%) indicating residual androgen activity in relation to reference agonist (100%)” value ([3]; 1 microM compound) was 25%. For the same compound, the “Relative LUC activity (%) indicating residual androgen activity in relation to reference agonist (100%)” value ([3]; 10 microM compound) was 13%.
`CC(C)S(=O)(=O)CC(O)(C(=O)Nc1ccc(C#N)c(C(F)(F)F)c1)c1ccc(Cl)nc1` (stereo not shown) [Example 12, 2-(6-chloropyridin-3-yl)-N-[4-cyano-3-(trifluoromethyl)phenyl]-2-hydroxy-3-(propane-2-sulfonyl)propanamide] was tested, and the “Relative LUC activity (%) in T877A AR” value [1] was 4%, the “Relative LUC activity (%) in W741L AR” value [2] was 3% and the activity at 1 µM [3] was 30%. The activity at 10 µM [3] was 5%.
For `N#Cc1ccc(NC(=O)C(O)(CS(=O)(=O)c2ccc(F)cc2)c2ccc(C(F)(F)F)nc2)cc1Cl` (stereo not shown) [Example 15, N-(3-chloro-4-cyanophenyl)-3-(4-fluorobenzenesulfonyl)-2-hydroxy-2-[6-(trifluoromethyl)pyridin-3-yl]propanamide], the activity at 1 µM [3] was 25% and the activity at 10 µM [3] was 3%.
